Results as given in ChEMBL document CHEMBL1201862, “PubChem BioAssay data set” (2004).
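Following 48 hours of exposure in 96-well plates, responses at five concentrations were used to interpolate endpoints linearly. GI50 marks 50% less growth.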 The source made the active and inactive calls. Cut-off read from the data, not from the text of the source: active = GI50 up to about 1.1 µM and inactive = higher.

Key:
Assay in all cases: NCI anticancer screen, dose series, 48 h
SW-620 = test system: SW-620
786-0 = test system: 786-0
UACC-62 = test system: UACC-62
ACHN = test system: ACHN
DMS-273 = test system: DMS-273
NCI-H23 = test system: NCI-H23
SNB-78 = test system: SNB-78
RXF 631 = test system: RXF 631
HCT-116 = test system: HCT-116
RPMI-8226 = test system: RPMI-8226
NCI-H460 = test system: NCI-H460
HCT-15 = test system: HCT-15
SK-MEL-5 = test system: SK-MEL-5
K562 = test system: K562
COLO 205 = test system: COLO 205
MOLT-4 = test system: MOLT-4
M14 = test system: M14
UO-31 = test system: UO-31
HT-29 = test system: HT-29
EKVX = test system: EKVX
HL-60 = test system: HL-60
Malme-3M = test system: Malme-3M
SF-539 = test system: SF-539
SF-295 = test system: SF-295
HOP-92 = test system: HOP-92
SR = test system: SR
DMS-114 = test system: DMS-114
KM-20L2 = test system: KM-20L2
LXFL 529 = test system: LXFL 529
NCI-H226 = test system: NCI-H226
DLD-1 = test system: DLD-1
UACC-257 = test system: UACC-257
SNB-75 = test system: SNB-75
IGROV-1 = test system: IGROV-1
OVCAR-8 = test system: OVCAR-8
OVCAR-4 = test system: OVCAR-4
CCRF-CEM = test system: CCRF-CEM
HOP-18 = test system: HOP-18
XF498 = test system: XF498
A549 = test system: A549
HOP-62 = test system: HOP-62
RXF 393 = test system: RXF 393
M19-MEL = test system: M19-MEL
TK-10 = test system: TK-10
OVCAR-5 = test system: OVCAR-5
SF-268 = test system: SF-268
SNB-19 = test system: SNB-19
LOX IMVI = test system: LOX IMVI
SK-OV-3 = test system: SK-OV-3
U-251 = test system: U-251
CAKI-1 = test system: CAKI-1
SN12C = test system: SN12C
OVCAR-3 = test system: OVCAR-3
SK-MEL-28 = test system: SK-MEL-28
SK-MEL-2 = test system: SK-MEL-2
KM12 = test system: KM12
NCI-H522 = test system: NCI-H522
BT-549 = test system: BT-549
PC-3 = test system: PC-3
T47D = test system: T47D
MDA-N = test system: MDA-N
Hs-578T = test system: Hs-578T
MDA-MB-231 = test system: MDA-MB-231
DU-145 = test system: DU-145
NCI/ADR-RES = test system: NCI/ADR-RES
HCC 2998 = test system: HCC 2998
MDA-MB-435 = test system: MDA-MB-435
MCF7 = test system: MCF7
A498 = test system: A498

Cc1noc2cccc(OCc3ccccc3)c12
GI50 (SW-620): > 100 µM (inactive) | GI50 (786-0): 99.3 µM (inactive) | GI50 (UACC-62): > 100 µM (inactive) | GI50 (ACHN): 50.7 µM (inactive) | GI50 (DMS-273): 52 µM (inactive) | GI50 (NCI-H23): > 100 µM (inactive) | GI50 (SNB-78): 80.5 µM (inactive) | GI50 (RXF 631): 85.7 µM (inactive) | GI50 (HCT-116): 48.1 µM (inactive) | GI50 (RPMI-8226): 30.7 µM (inactive) | GI50 (NCI-H460): > 100 µM (inactive) | GI50 (HCT-15): 50.8 µM | GI50 (SK-MEL-5): 17.1 µM (inactive) | GI50 (K562): 43 µM (inactive) | GI50 (COLO 205): 52.1 µM (inactive) | GI50 (MOLT-4): 39.5 µM (inactive) | GI50 (M14): 92.5 µM (inactive) | GI50 (UO-31): 15 µM (inactive) | GI50 (HT-29): 37.2 µM (inactive) | GI50 (EKVX): 35.7 µM (inactive) | GI50 (HL-60): 17.3 µM (inactive) | GI50 (Malme-3M): > 100 µM (inactive) | GI50 (SF-539): > 100 µM (inactive) | GI50 (SF-295): 72.4 µM (inactive) | GI50 (HOP-92): 43.3 µM (inactive) | GI50 (SR): 34.6 µM (inactive) | GI50 (DMS-114): 29 µM (inactive) | GI50 (KM-20L2): 65.5 µM (inactive) | GI50 (LXFL 529): 49 µM (inactive) | GI50 (NCI-H226): 46.5 µM (inactive) | GI50 (DLD-1): 64.9 µM (inactive) | GI50 (UACC-257): 53.8 µM (inactive) | GI50 (SNB-75): 30.6 µM (inactive) | GI50 (IGROV-1): 60.1 µM (inactive) | GI50 (OVCAR-8): 67.1 µM (inactive) | GI50 (OVCAR-4): 82.8 µM (inactive) | GI50 (CCRF-CEM): 13.5 µM (inactive) | GI50 (HOP-18): > 100 µM (inactive) | GI50 (XF498): 56.9 µM (inactive) | GI50 (A549): 44.1 µM (inactive) | GI50 (HOP-62): > 100 µM (inactive) | GI50 (RXF 393): 30.8 µM (inactive) | GI50 (M19-MEL): 60.1 µM (inactive) | GI50 (TK-10): 47 µM (inactive) | GI50 (OVCAR-5): 25.6 µM (inactive) | GI50 (SF-268): > 100 µM (inactive) | GI50 (SNB-19): 91 µM (inactive) | GI50 (LOX IMVI): 51.3 µM (inactive) | GI50 (SK-OV-3): > 100 µM (inactive) | GI50 (U-251): 93.8 µM (inactive) | GI50 (CAKI-1): 38.1 µM (inactive) | GI50 (SN12C): > 100 µM (inactive) | GI50 (OVCAR-3): 94.8 µM (inactive) | GI50 (SK-MEL-28): > 100 µM (inactive) | GI50 (SK-MEL-2): 23.8 µM (inactive) | GI50 (KM12): 91.2 µM (inactive) | GI50 (NCI-H522): 13.2 µM (inactive)

CC1=Nc2c(O)nc(S)nc2NC(c2c(Cl)cccc2Cl)C1 (stereo unspecified)
GI50 (SW-620): 0.971 µM (active) | GI50 (786-0): 0.902 µM (active) | GI50 (UACC-62): 1.78 µM (inactive) | GI50 (BT-549): 1.24 µM (inactive) | GI50 (PC-3): 1.17 µM (inactive) | GI50 (ACHN): 4.86 µM (inactive) | GI50 (DMS-273): 1.95 µM (inactive) | GI50 (NCI-H23): 2.65 µM (inactive) | GI50 (SNB-78): 4.43 µM (inactive) | GI50 (T47D): 1.48 µM (inactive) | GI50 (RXF 631): 5.75 µM (inactive) | GI50 (HCT-116): 0.76 µM (active) | GI50 (RPMI-8226): 0.583 µM (active) | GI50 (NCI-H460): 1.92 µM (inactive) | GI50 (HCT-15): 3.05 µM | GI50 (MDA-N): 0.552 µM (active) | GI50 (SK-MEL-5): 3.58 µM (inactive) | GI50 (K562): 0.649 µM (active) | GI50 (COLO 205): 1.87 µM (inactive) | GI50 (MOLT-4): 0.646 µM (active) | GI50 (M14): 2.32 µM (inactive) | GI50 (UO-31): 5.19 µM (inactive) | GI50 (HT-29): 0.998 µM (active) | GI50 (EKVX): 7.18 µM (inactive) | GI50 (HL-60): 0.552 µM (active) | GI50 (Malme-3M): 6.11 µM (inactive) | GI50 (SF-539): 1.75 µM (inactive) | GI50 (SF-295): 1.61 µM (inactive) | GI50 (HOP-92): 9.31 µM (inactive) | GI50 (Hs-578T): 0.589 µM (active) | GI50 (SR): 0.372 µM (active) | GI50 (DMS-114): 3.05 µM (inactive) | GI50 (KM-20L2): 4.23 µM (inactive) | GI50 (LXFL 529): 2.96 µM (inactive) | GI50 (NCI-H226): 5.21 µM (inactive) | GI50 (DLD-1): 2.42 µM (inactive) | GI50 (MDA-MB-231): 0.519 µM (active) | GI50 (DU-145): 1.95 µM (inactive) | GI50 (UACC-257): 3.07 µM (inactive) | GI50 (SNB-75): 3.34 µM (inactive) | GI50 (IGROV-1): 2.36 µM (inactive) | GI50 (OVCAR-8): 0.877 µM (active) | GI50 (OVCAR-4): 2.74 µM (inactive) | GI50 (CCRF-CEM): 0.275 µM (active) | GI50 (HOP-18): 15.2 µM (inactive) | GI50 (XF498): 3.1 µM (inactive) | GI50 (A549): 3.43 µM (inactive) | GI50 (NCI/ADR-RES): 0.193 µM (active) | GI50 (HOP-62): 6.84 µM (inactive) | GI50 (RXF 393): 5.26 µM (inactive) | GI50 (M19-MEL): 1.48 µM (inactive) | GI50 (TK-10): 10.1 µM (inactive) | GI50 (OVCAR-5): 5.83 µM (inactive) | GI50 (HCC 2998): 10.9 µM (inactive) | GI50 (SF-268): 1.57 µM (inactive) | GI50 (MDA-MB-435): 1.49 µM (inactive) | GI50 (SNB-19): 2.99 µM (inactive) | GI50 (LOX IMVI): 0.766 µM (active) | GI50 (MCF7): 1.13 µM (inactive) | GI50 (SK-OV-3): 7.28 µM (inactive) | GI50 (U-251): 0.993 µM (active) | GI50 (CAKI-1): 5.51 µM (inactive) | GI50 (SN12C): 1.42 µM (inactive) | GI50 (OVCAR-3): 1.58 µM (inactive) | GI50 (A498): 1.67 µM (inactive) | GI50 (SK-MEL-28): 2.73 µM (inactive) | GI50 (SK-MEL-2): 18 µM (inactive) | GI50 (KM12): 1.75 µM (inactive) | GI50 (NCI-H522): 1.98 µM (inactive)
